Results from patent US10392383B2, “3-(1H-benzo[d]imidazol-2-yl)-1H-pyrazolo[4,3-b]pyridines and therapeutic uses thereof” (Samumed, LLC, priority 2015, dated 2019).

Experiments:
Type in all cases: cell-based
IL-6 (THP-1 cells) = test: IL-6 inhibition in LPS-stimulated THP-1 monocytes (HTRF); settings: Homo sapiens, IL-6 HTRF; for EC50: 500 ng/mL LPS, Table 6; for inhibition at 10 µM: LPS, Table 6, read-out: percent inhibition at 10 μM (given in parentheses for EC50 >10 μM)
Summary of the method: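 THP-1 cells in 1% FBS pre-incubated 2 h with compound (10-point 1:3 series from 10 μM, 0.1% DMSO), then stimulated with 500 ng/mL LPS for 22 h at 37 °C. IL-6 measured by HTRF 665/620 ratio, normalized to DMSO; EC50 by four-parameter fit, or % inhibition at 10 μM when EC50 >10 μM.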

SW480 colon cancer cells = test: Cell viability assay (CellTiter-Blue) in SW480 cells; settings: Homo sapiens, 96 h, four days, CellTiter-Blue, 10 μM to 0.0045 μM
Summary of the method: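 SW480 cells (~2×10^3 per well) were exposed to compound for four days at 37 °C/5% CO2, using 8-point 1:3 dilutions from 10 μM to 0.0045 μM in duplicate. Viability was read by resazurin reduction (CellTiter-Blue, ~3 h, Ex 560/Em 590 nm). EC50 came from non-linear regression; above 10 μM, percent inhibition at 10 μM is given.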

[1] = test system: primary human fibroblasts derived from IPF patients (LL29 cells) treated with TGF-β1; test: Inhibition of the fibrotic process: αSMA staining in TGF-β1-treated LL29 fibroblasts; settings: Fibroblast; for EC50: 96 h, LL29 fibroblasts treated with TGF-β1 (20 ng/mL), 4 days, Table 4; for inhibition at 10 µM: LL29 fibroblasts treated with TGF-β1, Table 4, read-out: percent inhibition at 10 μM (given in parentheses for EC50 >10 μM)
Summary of the method: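 IPF-derived LL29 fibroblasts in F12 with 1% FBS dosed with compound (11-point, 10 μM to 1.87 nM, 0.1% DMSO), then 20 ng/mL TGF-β1 after 1 h, and cultured 4 days at 37 °C. αSMA-positive cell fraction imaged after excluding SYTOX-positive cells, normalized to TGF-β1/DMSO wells; EC50 by non-linear regression, % inhibition at 10 μM if EC50 >10 μM.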

| EC50 (IL-6 (THP-1 cells)) | EC50 (SW480 colon cancer cells) | Compound | EC50 [1] | inhibition at 10 µM (IL-6 (THP-1 cells)) | inhibition at 10 µM [1] |
| --- | --- | --- | --- | --- | --- |
| 3340 nM | 1040 nM | CN1CCN(c2cccc3[nH]c(-c4n[nH]c5ccc(-c6cncc(OCc7ccccc7)c6)nc45)nc23)CC1 [Compound 646, 5-(5-(Benzyloxy)pyridin-3-yl)-3-(4-(4-methylpiperazin-1-yl)-1H-benzo[d]imidazol-2-yl)-1H-pyrazolo[4,3-b]pyridine] | 1460 nM |  |  |
| > 10000 nM | 584 nM | CCNCc1cncc(-c2ccc3[nH]nc(-c4nc5c(-c6ccoc6)cccc5[nH]4)c3n2)c1 [Compound 314, N-((5-(3-(4-(Furan-3-yl)-1H-benzo[d]imidazol-2-yl)-1H-pyrazolo[4,3-b]pyridin-5-yl)pyridin-3-yl)methyl)ethanamine] | > 10000 nM | 15.6% | 0% |
| 7380 nM | 1380 nM | CN(C)CCOc1cncc(-c2ccc3[nH]nc(-c4nc5c(-c6cccc(F)c6)cccc5[nH]4)c3n2)c1 [Compound 515, 2-((5-(3-(4-(3-Fluorophenyl)-1H-benzo[d]imidazol-2-yl)-1H-pyrazolo[4,3-b]pyridin-5-yl)pyridin-3-yl)oxy)-N,N-dimethylethan-1-amine] | 2540 nM |  |  |
| 6770 nM | 2710 nM | Oc1cncc(-c2ccc3[nH]nc(-c4nc5c(N6CCCCC6)cccc5[nH]4)c3n2)c1 [Compound 613, 5-(3-(4-(Piperidin-1-yl)-1H-benzo[d]imidazol-2-yl)-1H-pyrazolo[4,3-b]pyridin-5-yl)pyridin-3-ol] | 3320 nM |  |  |
| > 10000 nM | 3830 nM | Cc1ccc(-c2cccc3[nH]c(-c4n[nH]c5ccc(-c6cncc(NC(=O)C(C)C)c6)nc45)nc23)s1 [Compound 401, N-(5-(3-(4-(5-Methylthiophen-2-yl)-1H-benzo[d]imidazol-2-yl)-1H-pyrazolo [4,3-b]pyridin-5-yl)pyridin-3-yl)isobutyramide] | 673 nM | 45.4% |  |
| 4260 nM | 2740 nM | CN(C)CCNc1cc(F)cc(-c2cccc3[nH]c(-c4n[nH]c5ccc(-c6cncc(CNCC7CCCC7)c6)nc45)nc23)c1 [Compound 473, N^1-(3-(2-(5-(5-(((Cyclopentylmethyl)amino)methyl)pyridin-3-yl)-1H-pyrazolo[4,3-b]pyridin-3-yl)-1H-benzo[d]imidazol-4-yl)-5-fluorophenyl)-N^2,N^2-dimethylethane-1,2-diamine] | 1450 nM |  |  |
| > 10000 nM | 2740 nM | CCC(=O)Nc1cncc(-c2ccc3[nH]nc(-c4nc5c(-c6cccc(F)c6)cccc5[nH]4)c3n2)c1 [Compound 1, N-(5-(3-(4-(3-Fluorophenyl)-1H-benzo[d]imidazol-2-yl)-1H-pyrazolo[4,3-b]pyridin-5-yl)pyridin-3-yl)propionamide] | 1180 nM | 49.2% |  |
| > 10000 nM | 5400 nM | Cc1ccncc1-c1ccc2[nH]nc(-c3nc4c(-c5ccsc5)cccc4[nH]3)c2n1 [Compound 285, 5-(4-Methylpyridin-3-yl)-3-(4-(thiophen-3-yl)-1H-benzo[d]imidazol-2-yl)-1H-pyrazolo[4,3-b]pyridine] | > 10000 nM | 36.3% | 0% |
| 1840 nM | 593 nM | O=C(Nc1cncc(-c2ccc3[nH]nc(-c4nc5ccccc5[nH]4)c3n2)c1)C1CCCCC1 [Compound 275, N-(5-(3-(1H-Benzo[d]imidazol-2-yl)-1H-pyrazolo[4,3-b]pyridin-5-yl)pyridin-3-yl) cyclohexanecarboxamide] | 80.8 nM |  |  |
| 2120 nM | 5590 nM | Cc1ccncc1-c1ccc2[nH]nc(-c3nc4c(-c5cc(F)cc(CNS(C)(=O)=O)c5)cccc4[nH]3)c2n1 [Compound 481, N-(3-Fluoro-5-(2-(5-(4-methylpyridin-3-yl)-1H-pyrazolo[4,3-b]pyridin-3-yl)-1H-benzo[d]imidazol-4-yl)benzyl)methanesulfonamide] | 2110 nM |  |  |
| 4900 nM | 933 nM | CN1CCN(c2cccc3[nH]c(-c4n[nH]c5ccc(-c6cncc(OC7CCCCC7)c6)nc45)nc23)CC1 [Compound 639, 5-(5-(Cyclohexyloxy)pyridin-3-yl)-3-(4-(4-methylpiperazin-1-yl)-1H-benzo [d]imidazol-2-yl)-1H-pyrazolo[4,3-b]pyridine] | 1360 nM |  |  |
| 64 nM | 320 nM | Cc1ccc(-c2cccc3[nH]c(-c4n[nH]c5ccc(-c6cncc(N)c6)nc45)nc23)s1 [Compound 395, 5-(3-(4-(5-Methylthiophen-2-yl)-1H-benzo[d]imidazol-2-yl)-1H-pyrazolo [4,3-b]pyridin-5-yl)pyridin-3-amine] | 186 nM |  |  |
| > 10000 nM | 3930 nM | CCCC(=O)Nc1cncc(-c2ccc3[nH]nc(-c4nc5c(-c6cc(F)cc(CNS(C)(=O)=O)c6)cccc5[nH]4)c3n2)c1 [Compound 493, N-(5-(3-(4-(3-Fluoro-5-(methylsulfonamidomethyl)phenyl)-1H-benzo[d]imidazol-2-yl)-1H-pyrazolo[4,3-b]pyridin-5-yl)pyridin-3-yl)butyramide] | 2620 nM | 35.3% |  |
| > 10000 nM | 4540 nM | O=C(Nc1cncc(-c2ccc3[nH]nc(-c4nc5c(N6CCCCC6)cccc5[nH]4)c3n2)c1)C1CC1 [Compound 188, N-(5-(3-(4-(Piperidin-1-yl)-1H-benzo[d]imidazol-2-yl)-1H-pyrazolo[4,3-b]pyridin-5-yl)pyridin-3-yl)cyclopropanecarboxamide] | > 10000 nM | 0% | 49.2% |
| 2500 nM | 6950 nM | CC(C)(C)CC(=O)Nc1cncc(-c2ccc3[nH]nc(-c4nc5ccccc5[nH]4)c3n2)c1 [Compound 268, N-(5-(3-(1H-Benzo[d]imidazol-2-yl)-1H-pyrazolo[4,3-b]pyridin-5-yl)pyridin-3-yl)-3,3-dimethylbutanamide] | 2380 nM |  |  |
| 7840 nM | 952 nM | NC1CN(c2cncc(-c3ccc4[nH]nc(-c5nc6c(-c7cccc(F)c7)cccc6[nH]5)c4n3)n2)C1 [Compound 510, 1-(6-(3-(4-(3-Fluorophenyl)-1H-benzo[d]imidazol-2-yl)-1H-pyrazolo[4,3-b]pyridin-5-yl)pyrazin-2-yl)azetidin-3-amine] | 4320 nM |  |  |
| 628 nM | 1480 nM | CCNCc1cncc(-c2ccc3[nH]nc(-c4nc5c(-c6cc(F)cc(NCCN(C)C)c6)cccc5[nH]4)c3n2)c1 [Compound 454, N^1-(3-(2-(5-(5-((Ethylamino)methyl)pyridin-3-yl)-1H-pyrazolo[4,3-b]pyridin-3-yl)-1H-benzo[d]imidazol-4-yl)-5-fluorophenyl)-N^2,N^2-dimethylethane-1,2-diamine] | 2400 nM |  |  |
| > 10000 nM | 8470 nM | Cc1cn(-c2cccc3[nH]c(-c4n[nH]c5ccc(-c6cncc(CN7CCCC7)c6)nc45)nc23)cn1 [Compound 210, 3-(4-(4-Methyl-1H-imidazol-1-yl)-1H-benzo[d]imidazol-2-yl)-5-(5-(pyrrolidin-1-ylmethyl)pyridin-3-yl)-1H-pyrazolo[4,3-b]pyridine] | > 10000 nM | 33.2% | 30.4% |
| > 10000 nM | 3750 nM | O=C(Nc1cncc(-c2ccc3[nH]nc(-c4nc5c(-c6cccs6)cccc5[nH]4)c3n2)c1)C1CC1 [Compound 356, N-(5-(3-(4-(Thiophen-2-yl)-1H-benzo[d]imidazol-2-yl)-1H-pyrazolo[4,3-b]pyridin-5-yl)pyridin-3-yl)cyclopropanecarboxamide] | > 10000 nM | 25.7% | 0% |
| > 10000 nM | 8840 nM | c1cncc(-c2ccc3[nH]nc(-c4nc5ccccc5[nH]4)c3n2)c1 [Compound 256, 3-(1H-Benzo[d]imidazol-2-yl)-5-(pyridin-3-yl)-1H-pyrazolo[4,3-b]pyridine] | > 10000 nM | 0% | 0% |
| 232 nM | 1140 nM | Oc1cncc(-c2ccc3[nH]nc(-c4nc5c(-c6cccnc6)cccc5[nH]4)c3n2)c1 [Compound 565, 5-(3-(4-(Pyridin-3-yl)-1H-benzo[d]imidazol-2-yl)-1H-pyrazolo[4,3-b]pyridin-5-yl)pyridin-3-ol] | 1730 nM |  |  |
| 1340 nM | 3100 nM | CS(=O)(=O)NCc1cc(F)cc(-c2cccc3[nH]c(-c4n[nH]c5ccc(-c6cncc(CNCc7ccccc7)c6)nc45)nc23)c1 [Compound 500, N-(3-(2-(5-(5-((Benzylamino)methyl)pyridin-3-yl)-1H-pyrazolo[4,3-b]pyridin-3-yl)-1H-benzo[d]imidazol-4-yl)-5-fluorobenzyl)methanesulfonamide] | 2210 nM |  |  |
